Earlier results in US20080249137A1, “PPAR active compounds” (priority 2005, published 2008).

Experiments:
PPARδ = molecular target: T1, PPARδ (Homo sapiens, UniProt Q03181)
T1 sequence (Q03181 1-441): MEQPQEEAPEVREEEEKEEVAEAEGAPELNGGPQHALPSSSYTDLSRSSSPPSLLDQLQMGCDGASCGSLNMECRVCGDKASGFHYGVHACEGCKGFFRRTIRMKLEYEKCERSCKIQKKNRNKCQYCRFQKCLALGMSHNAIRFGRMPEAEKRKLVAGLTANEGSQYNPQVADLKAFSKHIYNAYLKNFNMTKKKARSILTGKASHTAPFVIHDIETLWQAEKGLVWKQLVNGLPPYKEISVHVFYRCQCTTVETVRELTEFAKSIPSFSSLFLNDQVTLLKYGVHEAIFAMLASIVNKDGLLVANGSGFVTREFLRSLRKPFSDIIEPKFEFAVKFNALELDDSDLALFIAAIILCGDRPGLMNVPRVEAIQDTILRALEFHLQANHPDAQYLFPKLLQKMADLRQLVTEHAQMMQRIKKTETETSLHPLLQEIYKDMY

murine PPARα = molecular target: T2, murine PPARα (Mus musculus, UniProt P23204)
T2 sequence (P23204 1-468): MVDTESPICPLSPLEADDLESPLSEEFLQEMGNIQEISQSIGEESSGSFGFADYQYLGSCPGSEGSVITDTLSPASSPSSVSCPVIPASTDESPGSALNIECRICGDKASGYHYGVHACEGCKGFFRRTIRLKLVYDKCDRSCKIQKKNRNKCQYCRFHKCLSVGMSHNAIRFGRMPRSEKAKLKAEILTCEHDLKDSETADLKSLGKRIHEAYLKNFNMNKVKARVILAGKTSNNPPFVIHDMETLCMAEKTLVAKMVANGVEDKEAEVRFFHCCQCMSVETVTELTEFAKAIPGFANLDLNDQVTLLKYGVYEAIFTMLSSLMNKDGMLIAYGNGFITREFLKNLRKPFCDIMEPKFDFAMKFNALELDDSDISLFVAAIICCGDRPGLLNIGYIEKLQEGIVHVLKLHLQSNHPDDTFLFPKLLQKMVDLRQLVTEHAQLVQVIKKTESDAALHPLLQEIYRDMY

[1] = patients, large prospective trial

| SMILES | agonist selectivity for PPARδ over PPARγ (PPARδ) | activity on murine PPARα (murine PPARα) | reduction in cardiovascular events or death [1] [%] |
| --- | --- | --- | --- |
| CCCc1c(OCCCOc2ccc(OCC(=O)O)cc2)ccc(C(C)=O)c1O [Compound L-165041] | approximately 30 fold | inactive | – |
| Cc1ccc(C)c(OCCCC(C)(C)C(=O)O)c1 [gemfibrozil] | – | – | 22 |
